# Measured values published in US20250041284A1, “TREATMENT OF NEUROLOGICAL DISORDERS” (Praxis Precision Medicines, Inc., priority 2022, published 2025).
# How the values were obtained:
# [1] = test system: locomotor activity of male CD-1 mice; assay: Spontaneous locomotor activity (sLMA) (Example 8); assay type: in vivo, mouse
# Description: (§1) Male CD-1 mice (Vital River, Beijing, China) approximately 6 weeks old were used for the study. Body weights were between 25 g and 35 g at the time of experiment.
# (§2) Treatment was conducted using Compound 1 and 35% 2-hydroxypropyl-β-cyclodextrin (35% HPBCD, used as a negative control). Compound 1 stock solution was prepared fresh each experiment day in 35% HPBCD and protected from light. The stock solution was diluted with vehicle for lower doses.
# (§3) The spontaneous locomotor activity (sLMA) test for each study was carried out over three days, with mice from each treatment group tested each day. The treatment groups included mice dosed with vehicle (35% HPBCD) and with Compound 1 at the dose of 3 mg/kg, 5.6 mg/kg, 10 mg/kg and 20 mg/kg. Mice were randomly assigned into one of the treatment groups.
# (§4) A single dose of Compound 1 (3 mg/kg, 5.6 mg/kg, 10 mg/kg and 20 mg/kg) or vehicle (35% HPBCD) was administered to mice via oral gavage 30 minutes prior to testing. Immediately prior to conducting the sLMA test, a brief neurological assessment was performed. Each animal was visually assessed for sedation and ataxia.
# (§5) Activity was recorded by overhead cameras and was analyzed offline. Video tracking analysis software was used to determine total distance travelled in millimeters. Distance travelled was also calculated in 5-minute bins.
# (§6) All statistical analyses were conducted using GraphPad Prism 9.3. Means were combined and standard error was calculated using the Satterthwaite Approximation to combined standard deviations. […] TD50 and TC50 values were calculated from these fit curves.
# [2] = Spontaneous locomotor activity (sLMA) (Example 8); assay type: in vivo, mouse; settings: male, CD-1, mouse, in vivo, po, 30 min before test, distance travelled
# Description: as §1, §2, §3, §4, §5, §6
# human NaV1.6 [3] = target: T1, human NaV1.6 (Homo sapiens, UniProt Q9UQD0); assay: Peak INa use-dependent block (UDB-10 Hz), automated patch clamp in HEK cells; assay type: cell-based
# T1 construct: HEK-293 cell lines stably expressing human NaV1.6 (NP_055006) were used; expressed in transfected cells
# T1 sequence (Q9UQD0 whole entry): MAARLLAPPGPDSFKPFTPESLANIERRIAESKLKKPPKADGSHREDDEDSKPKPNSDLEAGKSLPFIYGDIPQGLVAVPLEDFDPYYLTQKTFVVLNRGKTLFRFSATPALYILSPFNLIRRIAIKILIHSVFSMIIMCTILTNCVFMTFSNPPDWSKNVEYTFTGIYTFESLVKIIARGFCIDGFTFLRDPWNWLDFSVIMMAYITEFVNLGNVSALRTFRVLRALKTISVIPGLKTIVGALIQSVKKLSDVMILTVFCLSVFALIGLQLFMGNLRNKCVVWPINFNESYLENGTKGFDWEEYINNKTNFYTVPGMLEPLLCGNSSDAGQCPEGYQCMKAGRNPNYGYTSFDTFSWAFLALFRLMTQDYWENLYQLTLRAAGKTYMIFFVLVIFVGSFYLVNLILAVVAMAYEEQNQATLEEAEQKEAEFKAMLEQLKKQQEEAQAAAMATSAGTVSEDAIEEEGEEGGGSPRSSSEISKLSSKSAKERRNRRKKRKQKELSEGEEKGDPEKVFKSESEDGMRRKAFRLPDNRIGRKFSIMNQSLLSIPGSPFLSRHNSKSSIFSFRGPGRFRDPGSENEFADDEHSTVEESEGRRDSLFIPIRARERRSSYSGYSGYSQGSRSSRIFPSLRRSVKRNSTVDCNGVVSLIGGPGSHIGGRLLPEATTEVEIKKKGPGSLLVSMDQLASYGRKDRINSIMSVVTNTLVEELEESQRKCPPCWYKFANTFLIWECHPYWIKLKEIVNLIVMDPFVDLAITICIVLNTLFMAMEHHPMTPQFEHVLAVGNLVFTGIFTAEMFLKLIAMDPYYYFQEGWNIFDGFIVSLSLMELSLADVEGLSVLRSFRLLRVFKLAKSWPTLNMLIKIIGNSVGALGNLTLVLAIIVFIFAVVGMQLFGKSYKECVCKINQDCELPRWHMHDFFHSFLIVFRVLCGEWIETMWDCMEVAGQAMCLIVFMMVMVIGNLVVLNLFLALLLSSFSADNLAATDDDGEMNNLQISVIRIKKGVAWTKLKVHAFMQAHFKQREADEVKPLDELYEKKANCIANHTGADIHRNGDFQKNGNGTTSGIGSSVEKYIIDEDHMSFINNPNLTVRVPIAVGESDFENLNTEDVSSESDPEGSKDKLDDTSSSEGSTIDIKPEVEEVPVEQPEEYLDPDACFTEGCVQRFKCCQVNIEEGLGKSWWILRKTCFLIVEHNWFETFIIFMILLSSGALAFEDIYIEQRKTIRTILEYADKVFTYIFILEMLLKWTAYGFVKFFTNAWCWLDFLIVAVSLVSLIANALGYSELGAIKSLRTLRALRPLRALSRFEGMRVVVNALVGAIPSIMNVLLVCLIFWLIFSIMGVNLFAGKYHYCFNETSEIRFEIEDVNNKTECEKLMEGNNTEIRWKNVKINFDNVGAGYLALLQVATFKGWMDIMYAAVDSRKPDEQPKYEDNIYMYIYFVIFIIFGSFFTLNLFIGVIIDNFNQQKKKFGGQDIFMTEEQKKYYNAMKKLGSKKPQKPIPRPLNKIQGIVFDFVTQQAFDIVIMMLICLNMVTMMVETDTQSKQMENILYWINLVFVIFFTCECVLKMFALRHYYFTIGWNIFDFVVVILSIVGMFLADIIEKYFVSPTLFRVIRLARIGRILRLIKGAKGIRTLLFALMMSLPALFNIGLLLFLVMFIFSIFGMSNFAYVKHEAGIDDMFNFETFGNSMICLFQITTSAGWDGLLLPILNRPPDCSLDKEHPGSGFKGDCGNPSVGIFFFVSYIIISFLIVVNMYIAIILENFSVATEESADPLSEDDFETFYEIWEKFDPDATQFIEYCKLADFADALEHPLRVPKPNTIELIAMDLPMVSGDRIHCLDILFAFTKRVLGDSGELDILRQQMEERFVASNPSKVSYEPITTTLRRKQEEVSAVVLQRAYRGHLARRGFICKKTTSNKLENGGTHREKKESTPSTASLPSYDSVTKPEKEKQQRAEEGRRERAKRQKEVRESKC
# [4] = test system: scPTZ-induced seizures in wildtype CD-1 mice; assay: Subcutaneous pentylenetetrazole (scPTZ) induced seizure; assay type: in vivo, mouse; settings: 1-10 mg/kg orally
# Description: Male CD-1 mice (Charles River Laboratories, St. Constant, Quebec, Canada) were used for the study. Body weights at the time the experiment was carried out were between 27 and 39 grams. The mice were group-housed in polycarbonate cages according to standard operating procedures. Animals were maintained on a 12 hour light/12 hour dark cycle, with all experimental activities occurring during the light phase. Food and water were available ad libitum. Mice acclimated to the test facility for at least 72 hours prior to testing.
# Treatment was conducted using Compound 1 and 35% 2-hydroxypropyl-β-cyclodextrin (35% HPBCD, used as a negative control). Compound 1 stock solution was prepared fresh each experiment day in 35% HPBCD. […]
# Immediately prior to the administration of PTZ, a brief neurological assessment was performed. Each animal was visually assessed and received a score from 0 to 3 according to the following scoring system: neurological score of 0 corresponds to a normal status; neurological score of 1 corresponds to a modest decrease in spontaneous activity; neurological score of 2 corresponds to a marked decrease in spontaneous activity; and neurological score of 3 corresponds to loss of righting reflex.
# PTZ (85 mg/kg, 10 ml/kg) was administered as a subcutaneous (s.c.) injection. […] The latency to generalized clonic seizure was recorded. Seizures were also scored using a seizure scale. […]
# human NaV1.6 [5] = target: T1, human NaV1.6; assay: Persistent (late) INa inhibition, ATX-II activated, automated patch clamp in HEK cells; assay type: cell-based
structure (smiles),measurement,setting,value
CCOC(F)(F)c1nnc2ccc(-c3cnc(OCC(F)(F)F)c(F)c3)cn12 [Compound 1],sedation or ataxia,[1]; 3 mg/kg and 5.6 mg/kg p.o.,No sedation or ataxia was observed
same,mice with sedation and/or ataxia,[1]; 10 mg/kg p.o.,five
same,mice with sedation and/or ataxia,[1]; 20 mg/kg p.o.,eight
same,sLMA brain TC50,[1]; brain concentration,1914 ng/g
same,sLMA plasma TC50,[1]; plasma concentration,1.256 µg/mL
same,TD50,[2],10.4 mg/kg
same,Emax,"human NaV1.6 [3]; HEK293, fitted maximum of Hill equation, read-out: Peak INa UDB-10 Hz Max effect",100%
same,UDB preference to TB,human NaV1.6 [3]; TB IC50 / UDB IC50,44 ×
same,Ratio to Pers. INa (Peak INa UDB-10 Hz),human NaV1.6 [3]; UDB IC50 / persistent INa IC50,1.6
same,activity dependent block of peak INa,"human NaV1.6 [3]; in words, FIGS. 7A-7C",enhanced activity dependent inhibition of peak INa
same,Peak INa UDB-10 Hz Hill slope,human NaV1.6 [3]; use-dependent block 10 Hz,(0.7)
same,IC50,"human NaV1.6 [3]; use-dependent block, Vm -120 mV, 10 Hz",200 nM
same,neurological scores before PTZ,[4],Neurological scores for all but one mouse treated with Compound 1 were normal
same,protection from PTZ-induced generalized clonus,[4]; PTZ 85 mg/kg s.c.,mice were protected from generalized clonus
same,Persistent INa potency relative to the other tested INa blocking agents,human NaV1.6 [5]; fold more potent,at least 550 ×
same,Persistent INa Hill slope,"human NaV1.6 [5]; hNaV1.6 in HEK cells, ATX-II",(1.4)
same,IC50,"human NaV1.6 [5]; hNaV1.6 in HEK cells, ATX-II, Vm -120 mV, 200 ms",128 nM
same,preference for persistent INa relative to peak INa,"human NaV1.6 [5]; in words, FIGS. 1A-1D",demonstrated preference for persistent INa relative to peak INa for all assay conditions
